# In ChEMBL document CHEMBL1201862, “PubChem BioAssay data set” (2004):
# Activity calls are given as the source filed them.
# How the values were obtained:
# Cytochrome P450 3A4 = Cytochrome P450 3A4 (Homo sapiens, UniProt P08684);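 note: CYP3A4 tested as one member of a cytochrome P450 panel screen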
# Cytochrome P450 2D6 = Cytochrome P450 2D6 (Homo sapiens, UniProt P10635);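 note: CYP2D6 member of a cytochrome P450 panel assay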
# [1] = inhibitors of SNCA 5'UTR-driven reporter translation, confirmation, H4 neuroglioma cells, luminescence (AID 1988); type: functional, cell-based
# [2] = inhibitors of firefly luciferase expression or activity, dose response, H4 neuroglioma cells, luminescence (AID 1990); type: functional, cell-based
# [3] = Luminescence Cell-Based Dose Response HTS to Identify Inhibitors of 5'UTR Stem-Loop Driven Prion Protein mRNA Translation in H4 Neuroglioblastoma Cells. [Related pubchem assays: 1827 (Project Summary), 1813 (Primary HTS)]; type: functional
# cells [4] = type: functional, cell-based
# A-375 = experiment: A375 melanoma cell viability reduction, dose response, counter-screen for MITF modulator project, cherry-pick samples, set 2 (AID 540335); type: functional, cell-based; settings: Homo sapiens
# INS1 = experiment: beta cell apoptosis inhibitors, cytokine rescue, dose response, luminescence, retest (AID 449756); type: functional, cell-based; settings: Rattus norvegicus;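 note: cell death triggered by IL-1 beta plus TNF-alpha plus IFN-gamma mixture; protective hits raise ATP signal compared with cytokine alone wells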
# [5] = biological target: T1, Microphthalmia-associated transcription factor (Homo sapiens, UniProt O75030); experiment: TRPM1 promoter luciferase signal decrease, dose response, MITF inhibitor project, cell-based, SK-MEL-5, cherry-picked, set 3 (AID 493073); type: functional
# T1 sequence (O75030 whole entry): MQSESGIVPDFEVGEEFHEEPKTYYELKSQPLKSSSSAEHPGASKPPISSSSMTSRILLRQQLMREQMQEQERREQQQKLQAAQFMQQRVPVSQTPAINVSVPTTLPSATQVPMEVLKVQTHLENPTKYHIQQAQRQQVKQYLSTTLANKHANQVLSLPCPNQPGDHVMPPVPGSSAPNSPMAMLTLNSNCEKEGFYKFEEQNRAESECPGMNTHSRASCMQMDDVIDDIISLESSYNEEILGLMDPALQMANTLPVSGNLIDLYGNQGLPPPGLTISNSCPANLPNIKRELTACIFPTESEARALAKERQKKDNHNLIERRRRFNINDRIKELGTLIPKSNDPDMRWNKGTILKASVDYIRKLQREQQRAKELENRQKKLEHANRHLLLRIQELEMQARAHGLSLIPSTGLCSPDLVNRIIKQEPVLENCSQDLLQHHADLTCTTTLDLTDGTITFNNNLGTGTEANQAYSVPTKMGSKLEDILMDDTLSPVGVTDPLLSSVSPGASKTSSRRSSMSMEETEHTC
# cells [6] = type: functional, cell-based; remark: listed apart in the source
# Escherichia coli [7] = experiment: microbe, parasite or virus in culture
# [8] = biological target: Peroxisome proliferator-activated receptor gamma/Nuclear receptor coactivator 2 (Homo sapiens, UniProt P37231); experiment: TR-FRET dose response biochemical High Throughput Screening assay for agonists of the steroid receptor coactivator 2 (SRC-2) recruitment by the peroxisome proliferator-activated receptor gamma (PPAR gamma): non-selective agonists. [Related pubchem assays: 1297, 1032 ]; type: functional
# Chain of Peroxisome proliferator-activated receptor gamma/Nuclear receptor coactivator 2 (P37231 whole entry): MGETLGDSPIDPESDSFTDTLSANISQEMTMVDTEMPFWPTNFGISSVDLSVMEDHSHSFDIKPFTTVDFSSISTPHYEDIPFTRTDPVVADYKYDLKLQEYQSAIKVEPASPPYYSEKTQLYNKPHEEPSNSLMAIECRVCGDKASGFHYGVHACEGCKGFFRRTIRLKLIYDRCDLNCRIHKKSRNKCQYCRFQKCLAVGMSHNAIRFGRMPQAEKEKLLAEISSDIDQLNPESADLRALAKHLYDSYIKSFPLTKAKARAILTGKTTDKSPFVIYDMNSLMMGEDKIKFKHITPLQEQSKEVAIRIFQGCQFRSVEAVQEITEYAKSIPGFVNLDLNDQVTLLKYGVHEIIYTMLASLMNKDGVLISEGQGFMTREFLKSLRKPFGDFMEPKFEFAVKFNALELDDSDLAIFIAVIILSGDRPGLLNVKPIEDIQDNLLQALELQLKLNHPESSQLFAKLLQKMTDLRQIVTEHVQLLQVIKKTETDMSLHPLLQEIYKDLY
# Chain of Peroxisome proliferator-activated receptor gamma/Nuclear receptor coactivator 2 (Q15596 whole entry, further chain): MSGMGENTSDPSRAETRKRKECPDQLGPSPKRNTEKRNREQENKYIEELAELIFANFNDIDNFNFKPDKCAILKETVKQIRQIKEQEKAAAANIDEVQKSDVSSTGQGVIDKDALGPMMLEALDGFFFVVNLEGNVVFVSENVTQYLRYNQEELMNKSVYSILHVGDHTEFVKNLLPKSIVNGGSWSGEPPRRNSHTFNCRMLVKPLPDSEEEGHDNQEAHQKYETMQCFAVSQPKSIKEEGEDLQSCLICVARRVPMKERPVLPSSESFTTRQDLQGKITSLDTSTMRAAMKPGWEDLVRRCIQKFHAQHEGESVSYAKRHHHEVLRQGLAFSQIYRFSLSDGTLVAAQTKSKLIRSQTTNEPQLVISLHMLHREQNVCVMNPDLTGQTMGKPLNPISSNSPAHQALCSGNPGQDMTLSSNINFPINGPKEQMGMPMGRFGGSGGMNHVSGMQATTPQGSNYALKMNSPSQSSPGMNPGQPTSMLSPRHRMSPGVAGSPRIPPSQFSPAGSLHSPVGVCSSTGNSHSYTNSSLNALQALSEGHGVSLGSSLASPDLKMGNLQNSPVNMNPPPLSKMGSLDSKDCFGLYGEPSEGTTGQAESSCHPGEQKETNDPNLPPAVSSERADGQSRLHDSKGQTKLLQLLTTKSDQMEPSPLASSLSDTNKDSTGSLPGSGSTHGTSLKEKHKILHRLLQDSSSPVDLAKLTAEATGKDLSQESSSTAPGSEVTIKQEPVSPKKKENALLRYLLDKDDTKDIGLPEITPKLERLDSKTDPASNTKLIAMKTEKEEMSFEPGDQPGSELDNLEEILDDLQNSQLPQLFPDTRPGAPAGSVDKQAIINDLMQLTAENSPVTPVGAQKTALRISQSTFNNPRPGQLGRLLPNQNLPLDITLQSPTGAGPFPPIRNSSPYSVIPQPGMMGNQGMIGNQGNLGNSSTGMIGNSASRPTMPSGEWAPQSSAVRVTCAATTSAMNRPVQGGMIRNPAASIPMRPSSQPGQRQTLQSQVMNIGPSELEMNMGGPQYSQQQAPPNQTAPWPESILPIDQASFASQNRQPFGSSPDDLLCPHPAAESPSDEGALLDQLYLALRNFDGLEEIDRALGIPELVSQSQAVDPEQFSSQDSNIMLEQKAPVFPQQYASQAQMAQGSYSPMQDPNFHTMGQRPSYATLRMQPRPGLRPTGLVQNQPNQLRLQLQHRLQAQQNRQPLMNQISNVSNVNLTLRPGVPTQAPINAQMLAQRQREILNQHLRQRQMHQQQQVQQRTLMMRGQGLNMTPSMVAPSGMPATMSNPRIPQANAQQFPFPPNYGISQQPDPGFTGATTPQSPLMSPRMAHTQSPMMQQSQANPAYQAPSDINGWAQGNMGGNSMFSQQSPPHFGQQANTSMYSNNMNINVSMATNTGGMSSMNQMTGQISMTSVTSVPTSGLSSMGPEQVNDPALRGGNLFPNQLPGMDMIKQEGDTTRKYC
# [9] = biological target: T2, Apoptotic protease-activating factor 1 (Homo sapiens, UniProt O14727); type: functional
# T2 sequence (O14727 whole entry): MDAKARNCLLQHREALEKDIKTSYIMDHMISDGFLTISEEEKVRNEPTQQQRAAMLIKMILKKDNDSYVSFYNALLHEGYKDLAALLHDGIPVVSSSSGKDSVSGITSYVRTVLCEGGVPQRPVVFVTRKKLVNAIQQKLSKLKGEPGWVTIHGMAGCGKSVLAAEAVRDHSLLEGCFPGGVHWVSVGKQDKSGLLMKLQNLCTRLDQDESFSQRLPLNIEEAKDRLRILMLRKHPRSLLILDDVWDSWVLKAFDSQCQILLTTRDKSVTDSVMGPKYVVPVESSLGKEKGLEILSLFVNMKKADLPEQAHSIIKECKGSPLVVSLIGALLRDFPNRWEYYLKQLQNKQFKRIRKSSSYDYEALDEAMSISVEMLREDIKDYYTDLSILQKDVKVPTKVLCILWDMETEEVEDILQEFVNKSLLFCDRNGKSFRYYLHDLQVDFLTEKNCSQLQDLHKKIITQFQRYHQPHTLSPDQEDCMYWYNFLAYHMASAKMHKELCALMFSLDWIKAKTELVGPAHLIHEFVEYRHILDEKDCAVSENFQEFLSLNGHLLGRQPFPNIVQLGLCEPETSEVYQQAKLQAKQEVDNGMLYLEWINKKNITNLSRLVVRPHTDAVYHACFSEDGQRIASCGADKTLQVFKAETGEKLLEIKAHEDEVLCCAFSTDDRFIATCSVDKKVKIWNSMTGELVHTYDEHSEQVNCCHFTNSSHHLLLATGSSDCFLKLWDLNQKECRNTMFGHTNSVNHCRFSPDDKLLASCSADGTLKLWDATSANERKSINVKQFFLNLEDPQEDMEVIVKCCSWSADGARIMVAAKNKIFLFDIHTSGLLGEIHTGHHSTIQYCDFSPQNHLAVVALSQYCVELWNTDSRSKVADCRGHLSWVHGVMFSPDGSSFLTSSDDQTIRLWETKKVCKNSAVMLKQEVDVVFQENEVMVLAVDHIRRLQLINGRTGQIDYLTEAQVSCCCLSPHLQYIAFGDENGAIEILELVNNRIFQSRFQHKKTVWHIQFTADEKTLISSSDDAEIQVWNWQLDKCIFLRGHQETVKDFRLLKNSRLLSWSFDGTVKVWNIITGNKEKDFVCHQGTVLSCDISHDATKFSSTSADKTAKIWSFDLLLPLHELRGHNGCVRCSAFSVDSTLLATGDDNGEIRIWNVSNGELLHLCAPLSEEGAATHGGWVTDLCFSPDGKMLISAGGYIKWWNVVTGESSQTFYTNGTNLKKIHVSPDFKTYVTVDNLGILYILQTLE
# [10] = biological target: Peroxisome proliferator-activated receptor gamma/Nuclear receptor coactivator 3 (Homo sapiens, UniProt P37231); experiment: TR-FRET dose response biochemical High Throughput Screening assay for agonists of the steroid receptor coactivator 3 (SRC-3) recruitment by the peroxisome proliferator-activated receptor gamma (PPAR gamma): non-selective agonists. [Related pubchem assays: 1301 (Confirmation screen.), 1048 (Primary screen.)]; type: functional
# [11] = control 3'UTR Renilla luciferase suppression, dose response, counter-screen for Shn3 inhibitor project, cell-based, Clone20-Shn3RL, cherry-picked (AID 624133); type: functional
# [12] = biological target: Peroxisome proliferator-activated receptor gamma/Nuclear receptor coactivator 1 (Homo sapiens, UniProt P37231); experiment: TR-FRET dose response biochemical High Throughput Screening assay for agonists of the steroid receptor coactivator 1 (SRC-1) recruitment by the peroxisome proliferator-activated receptor gamma (PPAR gamma): non-selective agonists. [Related pubchem assays (depositor defined):AID1300, AID1808, AID504735, AID631]; type: protein assay
# Chain of Peroxisome proliferator-activated receptor gamma/Nuclear receptor coactivator 1 (P37231 whole entry): as the sequence (P37231 whole entry) above
# Chain of Peroxisome proliferator-activated receptor gamma/Nuclear receptor coactivator 1 (Q15788 whole entry, further chain): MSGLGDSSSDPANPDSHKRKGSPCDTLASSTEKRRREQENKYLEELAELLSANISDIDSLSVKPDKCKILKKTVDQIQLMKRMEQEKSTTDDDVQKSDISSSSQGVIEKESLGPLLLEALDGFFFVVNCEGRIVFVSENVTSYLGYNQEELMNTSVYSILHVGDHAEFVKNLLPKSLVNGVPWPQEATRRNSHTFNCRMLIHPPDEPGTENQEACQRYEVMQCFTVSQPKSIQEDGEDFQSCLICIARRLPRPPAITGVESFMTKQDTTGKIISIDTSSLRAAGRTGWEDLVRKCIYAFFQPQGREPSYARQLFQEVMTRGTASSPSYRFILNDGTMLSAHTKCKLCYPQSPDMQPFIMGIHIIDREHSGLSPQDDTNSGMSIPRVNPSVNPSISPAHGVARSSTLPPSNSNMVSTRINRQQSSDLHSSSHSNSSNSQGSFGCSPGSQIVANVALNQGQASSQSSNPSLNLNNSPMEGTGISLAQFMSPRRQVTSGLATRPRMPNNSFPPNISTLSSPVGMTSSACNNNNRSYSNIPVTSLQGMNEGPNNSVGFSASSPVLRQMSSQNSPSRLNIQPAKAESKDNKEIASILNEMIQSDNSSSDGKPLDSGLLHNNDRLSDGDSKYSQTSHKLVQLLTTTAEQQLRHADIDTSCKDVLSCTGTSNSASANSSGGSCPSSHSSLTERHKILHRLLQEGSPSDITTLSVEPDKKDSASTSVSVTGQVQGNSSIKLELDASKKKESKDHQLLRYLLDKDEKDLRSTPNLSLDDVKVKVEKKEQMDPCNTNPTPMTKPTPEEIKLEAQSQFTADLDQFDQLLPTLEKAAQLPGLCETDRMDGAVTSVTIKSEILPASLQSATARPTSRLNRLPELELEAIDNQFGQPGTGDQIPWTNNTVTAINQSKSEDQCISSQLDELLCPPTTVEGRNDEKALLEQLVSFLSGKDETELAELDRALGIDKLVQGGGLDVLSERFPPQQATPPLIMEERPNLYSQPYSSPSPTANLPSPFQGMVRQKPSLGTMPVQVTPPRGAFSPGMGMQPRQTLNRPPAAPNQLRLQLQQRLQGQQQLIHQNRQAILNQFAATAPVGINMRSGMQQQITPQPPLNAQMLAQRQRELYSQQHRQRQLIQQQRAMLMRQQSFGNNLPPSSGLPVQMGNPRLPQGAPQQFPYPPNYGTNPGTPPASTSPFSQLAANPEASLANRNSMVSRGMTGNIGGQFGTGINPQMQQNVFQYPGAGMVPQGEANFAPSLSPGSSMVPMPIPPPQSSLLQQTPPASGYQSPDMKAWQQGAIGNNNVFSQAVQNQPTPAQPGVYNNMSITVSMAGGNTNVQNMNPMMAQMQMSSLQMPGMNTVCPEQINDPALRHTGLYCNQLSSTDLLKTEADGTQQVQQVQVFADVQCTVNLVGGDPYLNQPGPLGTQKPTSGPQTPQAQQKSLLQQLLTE
# [13] = Shn3 3'UTR reporter inhibitors, dose response, cell-based, Clone20 osteoblasts, firefly luciferase, cherry-picked (AID 624132); type: functional;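 note: firefly luciferase luminescence from reporter carrying the Shn3 3'UTR in osteoblasts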
# [14] = biological target: Voltage-dependent T-type calcium channel subunit alpha-1H (Homo sapiens, UniProt O95180); type: functional;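 note: channel activity triggered by adding a high calcium stimulation buffer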
# Escherichia coli [15] = experiment: microbe, parasite or virus in culture; remark: listed apart in the source
# [16] = biological target: Beta-2 adrenergic receptor (Homo sapiens, UniProt P07550); experiment: beta2AR agonists driving receptor internalization, dose response, cell-based, FAP fluorogen, flow cytometry, cherry pick 1 (AID 588763); type: functional
# HEK293 [17] = experiment: NOD2 signaling inhibitors in MDP-stimulated cells, cell-based, uHTS, luminescence (AID 2001); type: functional; settings: Homo sapiens
# HEK293 [18] = experiment: NOD1 signaling inhibitors, primary screen, cell-based, luminescence, uHTS (AID 1578); type: functional; settings: Homo sapiens
# HEK293 [19] = experiment: cells; type: functional, cell-based; settings: Homo sapiens
# HEK293 [20] = experiment: cells; type: functional, cell-based; settings: Homo sapiens; remark: listed apart in the source
# [21] = biological target: Nucleotide-binding oligomerization domain-containing protein 2 (Homo sapiens, UniProt Q9HC29); experiment: NOD2 signaling inhibitors, cell-based, luminescence, uHTS, HEK293 (AID 1566); type: functional
# HEK293 [22] = experiment: cells; type: functional, cell-based; settings: Homo sapiens; remark: listed apart in the source
# [23] = Luminescent dose response cell-based high throughput screening assay for inhibitors of the Janus kinase 2 mutant JAK2V617F. [Related pubchem assays: 1446 (Primary screen.), 1521 (Confirmation assay.), 1486 (Counter screen.)]; type: functional
# Vero [24] = experiment: cells; type: functional, cell-based; settings: Chlorocebus sabaeus
# Vero [25] = experiment: cells; type: functional; settings: Chlorocebus sabaeus
# [26] = NIH-3T3 fibroblast cytotoxicity, dose response, cytotoxicity control, cell-based, fluorescence, Alamar Blue, secondary assay (AID 2327); type: functional;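 note: NIH-3T3 mouse fibroblasts cultured with fluconazole at 8 µg/mL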
# [27] = growth suppression of PTEN-null colon cells, dose response, cell-based, HCT116 PTEN knockout (AID 1047); type: functional;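 note: HCT116 colon tumor cells with PTEN knocked out; cells exposed to compound for 60 hours before readout; potency for loss of cell viability measured by luminescence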
# [28] = inhibitors of intracellular T. cruzi replication, confirmation, NIH3T3 host cells, beta-gal luminescence (AID 2044); type: functional, cell-based;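 note: intracellular parasites grown in NIH/3T3 mouse fibroblasts as host cells; luminescent beta-galactosidase reporter signal from transgenic T. cruzi replicating inside host cells; inhibitors lower the luminescence signal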
# Bcl-2-related protein A1 = biological target: T3, Bcl-2-related protein A1 (Mus musculus, UniProt Q07440); type: functional;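 note: confirmatory dose–response counterscreen on Bfl-1, used to check hits from a UBC13 polyubiquitin inhibitor campaign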
# T3 sequence (Q07440 whole entry): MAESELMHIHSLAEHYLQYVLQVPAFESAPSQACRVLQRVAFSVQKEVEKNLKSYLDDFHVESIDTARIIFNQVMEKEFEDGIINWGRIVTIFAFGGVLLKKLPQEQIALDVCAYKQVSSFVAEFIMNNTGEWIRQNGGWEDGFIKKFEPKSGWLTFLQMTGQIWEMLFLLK
# [29] = biological target: T4, Ubiquitin-conjugating enzyme E2 N (Homo sapiens, UniProt P61088); type: functional
# T4 sequence (P61088 whole entry): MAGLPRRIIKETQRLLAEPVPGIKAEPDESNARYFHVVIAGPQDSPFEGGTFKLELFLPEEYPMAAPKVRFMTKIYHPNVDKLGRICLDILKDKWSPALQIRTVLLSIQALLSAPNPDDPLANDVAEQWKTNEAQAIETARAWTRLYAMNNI
# [30] = cytotoxicity toward NIH3T3 fibroblasts, dose response, counter-screen, cell-based, ATP luminescence, mouse fibroblasts (AID 2010); type: functional;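 note: cells exposed to compound for about 90 hours before reading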
# [31] = C. albicans growth with fluconazole, confirmation, fluorescence, retest (AID 2467); type: functional, cell-based
# [32] = growth suppression of beta-catenin-knockout colon cells, dose response, cell-based, HCT116, human colon tumor (AID 1045); type: functional;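 note: HCT116 colon tumor cells with beta catenin knocked out; cells exposed to compound for 60 hours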
# [33] = biological target: T4, Ubiquitin-conjugating enzyme E2 N; type: functional; remark: listed apart in the source
# Beta-galactosidase = Beta-galactosidase (Escherichia coli, UniProt Q8VNN2); experiment: beta-galactosidase enzyme inhibitors and activators, dose response, artefact control for CCR6 antagonist project, biochemical, E. coli enzyme, set 3 (AID 504712); type: functional
# Chain of Cytochrome P450 3A4 (P08684 whole entry): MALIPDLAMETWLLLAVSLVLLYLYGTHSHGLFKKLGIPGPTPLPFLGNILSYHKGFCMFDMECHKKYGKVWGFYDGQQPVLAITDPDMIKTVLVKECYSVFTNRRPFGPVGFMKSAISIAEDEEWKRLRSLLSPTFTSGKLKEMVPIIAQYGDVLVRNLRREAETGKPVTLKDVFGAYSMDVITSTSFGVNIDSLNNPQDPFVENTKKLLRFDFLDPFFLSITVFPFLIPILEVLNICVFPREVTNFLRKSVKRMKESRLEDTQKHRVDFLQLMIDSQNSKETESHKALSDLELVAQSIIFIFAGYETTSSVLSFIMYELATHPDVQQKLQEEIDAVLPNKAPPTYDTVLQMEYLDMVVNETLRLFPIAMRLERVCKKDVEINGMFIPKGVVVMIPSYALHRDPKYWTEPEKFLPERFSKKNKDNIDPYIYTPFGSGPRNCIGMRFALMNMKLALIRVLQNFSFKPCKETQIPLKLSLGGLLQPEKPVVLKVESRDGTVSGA
# Chain of Cytochrome P450 2D6 (P10635 whole entry): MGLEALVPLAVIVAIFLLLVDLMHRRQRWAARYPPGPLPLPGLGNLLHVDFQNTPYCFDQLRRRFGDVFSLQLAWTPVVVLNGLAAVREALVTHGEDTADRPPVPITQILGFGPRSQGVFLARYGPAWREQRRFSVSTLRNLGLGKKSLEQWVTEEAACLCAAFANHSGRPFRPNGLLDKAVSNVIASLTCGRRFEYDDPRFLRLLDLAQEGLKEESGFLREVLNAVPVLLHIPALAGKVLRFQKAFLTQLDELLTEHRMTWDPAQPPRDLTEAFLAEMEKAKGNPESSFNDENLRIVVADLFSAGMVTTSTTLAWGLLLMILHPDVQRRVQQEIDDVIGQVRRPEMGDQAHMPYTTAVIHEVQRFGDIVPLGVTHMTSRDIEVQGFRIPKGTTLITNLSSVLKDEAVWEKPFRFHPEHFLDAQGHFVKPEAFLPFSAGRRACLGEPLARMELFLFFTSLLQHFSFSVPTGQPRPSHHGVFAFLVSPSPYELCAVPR
compound,measurement,setting,value
C=CCNS(=O)(=O)c1cccc2cc(C(=O)O)c(O)cc12,AC50,Cytochrome P450 3A4,inconclusive
same,AC50,Cytochrome P450 2D6,22.4 µM (inconclusive)
Cc1cc(C)n(CCC(=O)N/N=C/c2c(O)ccc3ccccc23)n1,EC50,[1],8.69 µM (active)
same,EC50,[2],11 µM (active)
same,EC50,[3],11 µM (active)
same,EC50,cells [4],> 350 µM (not active)
same,AC50,A-375,52.3 µM (active)
same,AC50,INS1,3.53 µM (active)
same,AC50,[5],45.1 µM (active)
same,EC50,cells [6],9.7 µM (active)
same,AC50,Escherichia coli [7],40.1 µM (active)
CS(=O)(=O)c1nc(-c2ccc(Br)cc2)cc(-c2ccccc2)c1C#N,EC50,[8],8.09 µM (active)
same,IC50,[9],2.07 µM (active)
same,EC50,[10],> 79.4 µM (not active)
same,AC50,[11],6.77 µM (active)
same,EC50,[12],7.5 µM (active)
same,AC50,[13],4.72 µM (active)
OC[C@@H]1O[C@@H](n2cnc3cncnc32)[C@@H](O)[C@H]1O,AC50,Cytochrome P450 3A4,inconclusive
CCCCOC(=S)NC(=O)c1sc2ccccc2c1Cl,AC50,Cytochrome P450 3A4,inconclusive
CC1CCN(S(=O)(=O)c2cccc(C(=O)NCc3cccs3)c2)CC1,EC50,[14],2.96 µM (active)
same,AC50,Escherichia coli [15],40.9 µM (active)
same,AC50,Escherichia coli [7],106 µM (active)
COc1cc2oc(=O)c(Br)c(C)c2c(OC)c1OC,EC50,[8],10 µM (not active)
same,EC50,[10],> 79.4 µM (not active)
same,EC50,[12],13 µM (inactive)
O=S(=O)(Nc1cccc(-c2cn3cccnc3n2)c1)c1ccc(-c2ccccc2)cc1,EC50,[16],4.33 µM (active)
same,IC50,HEK293 [17],6.98 µM (active)
same,EC50,HEK293 [18],8.6 µM (active)
same,IC50,HEK293 [19],14.5 µM (active)
same,IC50,HEK293 [20],6.52 µM (active)
same,EC50,[21],10.3 µM (active)
same,IC50,HEK293 [22],> 20 µM (inactive)
CCCCn1c(=N)n(CC(=O)c2ccc(Br)s2)c2ccccc21,IC50,[23],1.42 µM (active)
same,AC50,A-375,30.3 µM (active)
same,AC50,INS1,7.71 µM (active)
same,AC50,[5],7.45 µM (active)
Cc1ccc(S(=O)(=O)n2cccc2/C=C/[N+](=O)[O-])cc1,IC50,Vero [24],> 25 µM (active)
same,CC50,Vero [25],9.49 µM (active)
Cc1ccccc1-c1ccc(/C=N/c2c(C)n(C)n(-c3ccccc3)c2=O)o1,EC50,[8],47.6 µM (not active)
same,EC50,[10],> 79.4 µM (not active)
same,EC50,[12],> 79.4 µM (inactive)
N=C(N)N/N=C/c1ccc(OCc2ccc(Cl)cc2)cc1,EC50,[26],> 150 µM (inactive)
same,EC50,[27],3.74 µM (active)
same,EC50,[28],1.93 µM (active)
same,IC50,Bcl-2-related protein A1,> 20 µM (inactive)
same,IC50,[29],13 µM (active)
same,EC50,[30],> 60 µM (inconclusive)
same,EC50,[31],> 38 µM (not active)
same,EC50,[32],3.25 µM (active)
same,IC50,[33],12.4 µM (active)
same,IC50,Beta-galactosidase,> 66.6 µM (inactive)
C=CCN1C(=O)/C(=C/c2ccc(Br)s2)C(=O)NC1=S,CC50,Vero [25],24.2 µM (active)
